Data: patent publication US20120029085A1, “STABILIZATION OF QUINOL COMPOSITION SUCH AS CATECHOLAMINE DRUGS” (priority 2010, published 2012)

Tests used:
[1] = cited from earlier work
[2] = Percent protonated (RNH+) and unprotonated (RN) amine form of local anesthetics as a function of pH; format: physicochemical; conditions: for % RNH(+) at pH 5.0: pH 5.0, protonated form; for % RN at pH 5.0: pH 5.0, unprotonated form; for % RNH(+) at pH 6.5: pH 6.5, protonated form; for % RN at pH 6.5: pH 6.5, unprotonated form; for % RNH(+) at pH 7.4: pH 7.4, protonated form; for % RN at pH 7.4: pH 7.4, unprotonated form
Text: According to the Henderson-Hasselbalch equation:
pH=pKa+log([A^−]/[HA]) (I)

[3] = cystine/cysteine redox couple; cited from earlier work
[4] = amine group of the local anesthetic; cited from earlier work

Row | Compound | % RNH(+) at pH 5.0 [2] | % RN at pH 5.0 [2] | % RNH(+) at pH 6.5 [2] | % RN at pH 6.5 [2] | % RNH(+) at pH 7.4 [2] | % RN at pH 7.4 [2] | other results
1 | CCC(CC)(C(=O)O)C(=O)O [diethylmalonic acid] |  |  |  |  |  |  | pKa (value in parentheses after the buffer name) ([1]; text list of pH buffers, b28): 7.2
2 | CCN(CC)CC(=O)Nc1c(C)cccc1C [Lidocaine] | 99.87% | 0.13% | 96.17% | 3.83% | 75.97% | 24.03% | 
3 | N[C@@H](CS)C(=O)O [cysteine] |  |  |  |  |  |  | standard reduction potential E° [3]: −0.34 V
4 | O=S(=O)(O)CCN(CCO)CCO [BES] |  |  |  |  |  |  | pKa ([1]; Table 3, buffer): 7.09
5 | O=S(=O)(O)CCCCN1CCOCC1 [MOBS] |  |  |  |  |  |  | pKa ([1]; Table 3, buffer): 7.60
6 | O=C(O)CNC(CO)(CO)CO [Tricine] |  |  |  |  |  |  | pKa ([1]; Table 3, buffer): 8.05
7 | CCCNC(C)C(=O)Nc1ccccc1C (stereo not drawn) [Prilocaine] | 99.87% | 0.13% | 96.17% | 3.83% | 75.97% | 24.03% | 
8 | CCCCOc1cc(C(=O)NCCN(CC)CC)c2ccccc2n1 [Dibucaine] | 99.98% | 0.02% | 99.50% | 0.50% | 96.17% | 3.83% | pKa (amine) [4]: 8.8
9 | CCCN(CC)C(CC)C(=O)Nc1c(C)cccc1C (stereo not drawn) [Etidocaine] | 99.80% | 0.20% | 94.06% | 5.94% | 66.61% | 33.39% | 
10 | CCCN1CCCC[C@H]1C(=O)Nc1c(C)cccc1C [Ropivacaine] | 99.92% | 0.08% | 97.55% | 2.45% | 83.37% | 16.63% | 
11 | OCC(CO)(CO)NCCCNC(CO)(CO)CO [Bis-Tris Propane] |  |  |  |  |  |  | pKa1 ([1]; Table 3, buffer, first dissociation): 6.80
12 | CCCCN1CCCCC1C(=O)Nc1c(C)cccc1C (stereo not drawn) [Bupivacaine] | 99.92% | 0.08% | 97.55% | 2.45% | 83.37% | 16.63% | 
13 | O=C(O)CC(O)C(=O)O (stereo not drawn) [Malate] |  |  |  |  |  |  | pKa2 ([1]; Table 3, buffer, second dissociation): 5.13
14 | CCN(CC)CCOC(=O)c1ccc(N)cc1 [Procaine] | 99.99% | 0.01% | 99.60% | 0.40% | 96.93% | 3.07% | 
15 | CCOC(=O)c1ccc(N)cc1 [Benzocaine] | 0.99% | 99.01% | 0.03% | 99.97% | 0.00% | 100.00% | pKa (amine) [4]: 3
16 | O=S(=O)(O)CCNC(CO)(CO)CO [TES] |  |  |  |  |  |  | pKa ([1]; Table 3, buffer): 7.50
17 | CCCNC(C)C(=O)Nc1c(C)csc1C(=O)OC (stereo not drawn) [Articaine] | 99.84% | 0.16% | 95.23% | 4.77% | 71.53% | 28.47% | 
18 | NC(=O)CN(CC(=O)O)CC(=O)O [ADA] |  |  |  |  |  |  | pKa ([1]; Table 3, buffer): 6.60
19 | CCCCNc1ccc(C(=O)OCCN(C)C)cc1 [Tetracaine] | 99.94% | 0.06% | 98.04% | 1.96% | 86.32% | 13.68% | 
20 | Cc1cccc(C)c1NC(=O)C1CCCCN1C (stereo not drawn) [Mepivacaine] | 99.75% | 0.25% | 92.64% | 7.36% | 61.31% | 38.69% | 
21 | CCN(CC)CCOC(=O)c1ccc(N)cc1Cl [Chloroprocaine] | 99.98% | 0.02% | 99.37% | 0.63% | 95.23% | 4.77% | pKa (amine) [4]: 8.7
